Test results published in article PMC11357638 (Molecules, 2024).
Where a chain is given by its changes, count along the chain named.

Columns and labels:
[1] = biological target: T1, human TRPV4 (hTRPV4) channels (Homo sapiens, UniProt Q9HBA0); assay: Whole-cell patch-clamp selectivity, hTRPV4 in HEK293T cells; assay type: cell-based; conditions: HEK-293T; 1000 μM CA, current caused by 0.1 μM GSK1016790A, mean ± SD, n = 5
T1 construct: expressed in transfected cells; host or cells: HEK293T

hTRPV3 single channel = biological target: T2, hTRPV3 single channel (Homo sapiens, UniProt Q8NET8); assay: Inside-out single-channel recording of hTRPV3; assay type: cell-based; conditions: CA at 500 μM co-applied with 50 μM 2-APB, −60 mV
T2 construct: expressed in transfected cells; host or cells: HEK293T
T2 sequence (Q8NET8 1-790): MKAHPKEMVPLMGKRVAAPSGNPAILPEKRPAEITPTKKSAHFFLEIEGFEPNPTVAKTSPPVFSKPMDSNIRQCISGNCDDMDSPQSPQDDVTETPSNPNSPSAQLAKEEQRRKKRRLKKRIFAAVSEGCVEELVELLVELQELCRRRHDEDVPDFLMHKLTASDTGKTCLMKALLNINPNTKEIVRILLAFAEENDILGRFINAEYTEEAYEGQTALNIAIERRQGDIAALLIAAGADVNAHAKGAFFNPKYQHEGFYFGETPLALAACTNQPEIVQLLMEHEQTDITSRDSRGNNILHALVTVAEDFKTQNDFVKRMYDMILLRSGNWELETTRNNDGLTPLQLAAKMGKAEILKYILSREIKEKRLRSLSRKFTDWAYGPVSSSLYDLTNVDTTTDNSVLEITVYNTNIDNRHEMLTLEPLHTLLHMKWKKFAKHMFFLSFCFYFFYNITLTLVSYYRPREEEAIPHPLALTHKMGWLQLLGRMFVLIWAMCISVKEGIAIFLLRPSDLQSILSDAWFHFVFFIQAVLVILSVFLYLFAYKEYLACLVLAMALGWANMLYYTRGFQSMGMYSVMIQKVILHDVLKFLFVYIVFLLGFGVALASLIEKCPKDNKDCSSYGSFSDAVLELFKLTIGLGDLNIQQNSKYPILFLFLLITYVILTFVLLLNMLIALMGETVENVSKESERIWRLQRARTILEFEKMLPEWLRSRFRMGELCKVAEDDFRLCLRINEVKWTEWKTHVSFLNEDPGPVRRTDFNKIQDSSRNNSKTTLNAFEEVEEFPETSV

hTRPV3 F666A mutant = biological target: T3, hTRPV3 F666A mutant (Homo sapiens, UniProt Q8NET8, F666A); assay: cell-based
T3 sequence (Q8NET8 1-790 F666A): T2 sequence (Q8NET8 1-790) with F666A

HEK293T cells = assay: Cell viability of HEK293T cells (CCK-8 assay); assay type: cell-based, human; conditions: CA 1 mM, CCK-8, 6 hours treatment
[2] = biological target: T4, human TRPA1 (hTRPA1) channels (Homo sapiens, UniProt O75762); assay: Whole-cell patch-clamp selectivity, hTRPA1 in HEK293T cells; assay type: cell-based; conditions: CA at 1000 μM, current induced by AITC at 300 μM, mean ± SD, n = 5
T4 construct: expressed in transfected cells; host or cells: HEK293T
T4 sequence (O75762 whole entry): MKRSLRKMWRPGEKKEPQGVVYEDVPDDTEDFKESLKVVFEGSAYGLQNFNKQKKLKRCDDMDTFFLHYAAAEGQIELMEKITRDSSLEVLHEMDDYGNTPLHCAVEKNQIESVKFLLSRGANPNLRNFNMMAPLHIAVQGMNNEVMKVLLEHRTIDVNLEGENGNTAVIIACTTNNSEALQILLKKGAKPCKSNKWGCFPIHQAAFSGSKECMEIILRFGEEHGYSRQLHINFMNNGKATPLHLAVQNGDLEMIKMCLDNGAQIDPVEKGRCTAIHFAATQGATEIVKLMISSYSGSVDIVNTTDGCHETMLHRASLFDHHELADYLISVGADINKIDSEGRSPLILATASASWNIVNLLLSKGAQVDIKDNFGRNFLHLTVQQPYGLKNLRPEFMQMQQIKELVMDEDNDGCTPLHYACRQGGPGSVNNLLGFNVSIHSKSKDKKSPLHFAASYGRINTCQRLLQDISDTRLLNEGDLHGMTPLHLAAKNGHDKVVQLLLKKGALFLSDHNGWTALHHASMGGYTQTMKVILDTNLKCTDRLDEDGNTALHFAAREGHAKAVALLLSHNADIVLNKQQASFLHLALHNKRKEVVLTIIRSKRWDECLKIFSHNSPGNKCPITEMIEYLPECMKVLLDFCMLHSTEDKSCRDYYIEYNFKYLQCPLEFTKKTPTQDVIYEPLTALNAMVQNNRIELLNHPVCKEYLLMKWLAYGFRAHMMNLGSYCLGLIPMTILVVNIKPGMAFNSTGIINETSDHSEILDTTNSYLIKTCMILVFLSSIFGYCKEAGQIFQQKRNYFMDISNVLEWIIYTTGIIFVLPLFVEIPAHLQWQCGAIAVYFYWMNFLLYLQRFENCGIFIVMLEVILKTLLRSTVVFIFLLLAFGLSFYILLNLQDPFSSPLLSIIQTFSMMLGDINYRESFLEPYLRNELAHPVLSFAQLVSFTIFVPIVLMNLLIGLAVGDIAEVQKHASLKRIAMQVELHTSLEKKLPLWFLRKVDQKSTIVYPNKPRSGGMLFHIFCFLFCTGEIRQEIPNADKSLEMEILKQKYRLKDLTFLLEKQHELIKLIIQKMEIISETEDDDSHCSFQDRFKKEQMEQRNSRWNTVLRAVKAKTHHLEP

[3] = biological target: T5, human TRPM8 (hTRPM8) channels (Homo sapiens, UniProt Q7Z2W7); assay: Whole-cell patch-clamp selectivity, hTRPM8 in HEK293T cells; assay type: cell-based; conditions: HEK-293T; 1000 μM CA, current caused by 500 μM menthol, mean ± SD, n = 5
T5 construct: expressed in transfected cells; host or cells: HEK293T
T5 sequence (Q7Z2W7 whole entry): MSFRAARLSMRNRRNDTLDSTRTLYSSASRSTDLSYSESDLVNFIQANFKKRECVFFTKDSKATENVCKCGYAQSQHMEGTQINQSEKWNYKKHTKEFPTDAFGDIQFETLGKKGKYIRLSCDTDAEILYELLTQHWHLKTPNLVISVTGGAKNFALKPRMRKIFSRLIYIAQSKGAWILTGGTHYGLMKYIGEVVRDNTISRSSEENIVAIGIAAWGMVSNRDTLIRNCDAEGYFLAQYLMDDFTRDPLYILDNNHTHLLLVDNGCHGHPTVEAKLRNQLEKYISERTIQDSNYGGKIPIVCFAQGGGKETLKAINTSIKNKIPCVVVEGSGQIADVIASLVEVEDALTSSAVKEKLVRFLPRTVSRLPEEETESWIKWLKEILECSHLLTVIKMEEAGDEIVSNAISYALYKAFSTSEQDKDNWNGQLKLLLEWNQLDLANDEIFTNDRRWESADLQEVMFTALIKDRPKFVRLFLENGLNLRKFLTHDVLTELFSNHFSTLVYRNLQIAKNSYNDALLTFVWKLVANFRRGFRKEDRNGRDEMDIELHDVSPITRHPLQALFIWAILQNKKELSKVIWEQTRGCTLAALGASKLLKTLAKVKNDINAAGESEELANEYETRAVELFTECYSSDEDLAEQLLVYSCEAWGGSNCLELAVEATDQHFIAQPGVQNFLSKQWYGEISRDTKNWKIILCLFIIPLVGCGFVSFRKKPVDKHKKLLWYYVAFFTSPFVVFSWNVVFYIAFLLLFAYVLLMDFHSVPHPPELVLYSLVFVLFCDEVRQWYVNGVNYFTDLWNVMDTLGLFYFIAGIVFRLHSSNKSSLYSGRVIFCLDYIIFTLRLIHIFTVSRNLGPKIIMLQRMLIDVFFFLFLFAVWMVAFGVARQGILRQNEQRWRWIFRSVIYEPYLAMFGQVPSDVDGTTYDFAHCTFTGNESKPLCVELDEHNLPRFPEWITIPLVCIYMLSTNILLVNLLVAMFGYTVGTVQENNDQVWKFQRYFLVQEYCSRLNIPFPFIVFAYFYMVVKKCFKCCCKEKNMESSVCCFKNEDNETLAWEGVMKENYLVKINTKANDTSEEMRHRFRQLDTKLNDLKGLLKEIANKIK

[4] = system: TRPV3-mediated skin inflammation induced by carvacrol; assay: Mouse model of dorsal skin dermatitis induced by skin sensitizer carvacrol; assay type: in vivo, C57BL/6J mice; conditions: mice, subcutaneous CA 0.1 and 1 mM (100 μL) once a day for 5 days, topical 2% carvacrol, versus carvacrol model group
hTRPV3 L669A mutant = biological target: T6, hTRPV3 L669A mutant (Homo sapiens, UniProt Q8NET8, L669A); assay: cell-based
T6 sequence (Q8NET8 1-790 L669A): T2 sequence (Q8NET8 1-790) with L669A

T1 sequence (Q9HBA0 whole entry): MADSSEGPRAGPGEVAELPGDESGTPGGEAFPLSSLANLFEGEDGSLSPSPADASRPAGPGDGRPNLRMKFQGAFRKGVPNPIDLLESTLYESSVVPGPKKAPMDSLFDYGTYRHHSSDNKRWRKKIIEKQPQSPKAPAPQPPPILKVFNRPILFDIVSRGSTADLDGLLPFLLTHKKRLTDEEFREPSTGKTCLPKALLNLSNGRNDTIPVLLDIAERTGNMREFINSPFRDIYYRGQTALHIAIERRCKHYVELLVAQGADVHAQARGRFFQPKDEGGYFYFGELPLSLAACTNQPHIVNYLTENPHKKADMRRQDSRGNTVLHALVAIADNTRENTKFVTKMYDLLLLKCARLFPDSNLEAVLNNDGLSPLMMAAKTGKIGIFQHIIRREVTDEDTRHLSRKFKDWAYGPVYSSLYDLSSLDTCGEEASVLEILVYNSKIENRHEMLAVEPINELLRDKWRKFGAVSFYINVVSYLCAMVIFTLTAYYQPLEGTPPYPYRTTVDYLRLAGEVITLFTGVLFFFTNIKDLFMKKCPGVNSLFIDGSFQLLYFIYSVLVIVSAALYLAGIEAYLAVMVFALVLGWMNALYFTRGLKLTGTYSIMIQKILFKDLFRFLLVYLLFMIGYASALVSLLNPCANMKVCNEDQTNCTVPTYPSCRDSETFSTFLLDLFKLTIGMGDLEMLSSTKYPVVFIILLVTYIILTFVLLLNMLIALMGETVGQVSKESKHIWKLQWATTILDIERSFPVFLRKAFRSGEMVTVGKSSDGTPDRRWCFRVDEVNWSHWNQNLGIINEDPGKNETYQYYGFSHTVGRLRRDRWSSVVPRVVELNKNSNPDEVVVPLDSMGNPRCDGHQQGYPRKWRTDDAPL

O=C(O)/C=C/c1ccc(O)c(O)c1 [CA, caffeic acid]
inhibition at 1000 µM [1]: ~4.6% | open frequency (Freq) (hTRPV3 single channel): 15.96 ± 2.25 Hz | IC50 (hTRPV3 F666A mutant): 105 ± 4.8 µM | cytotoxicity (cell viability) (HEK293T cells): did not cause any noticeable cytotoxicity | inhibition of human TRPA1 current [2]: about 22.9 ± 12.0% | inhibition at 1000 µM [3]: ~20.1% | epidermal thickness ([4]; H&E sections): reduced epidermal thickness | dermatitis scores [4]: significantly reduced the dermatitis scores | IC50 (hTRPV3 L669A mutant): 180 ± 59.9 µM
